Measured values from ChEMBL document CHEMBL5046253, “Synthesis and bioevaluation of diaryl urea derivatives as potential antitumor agents for the treatment of human colorectal cancer” (Eur J Med Chem, 2022).

Key:
[1] = Selectivity index, ratio of IC50 for antiproliferative activity against human L02 cells to IC50 for antiproliferative activity against human HepG2 cells; type: toxicity, cell-based; settings: L02 cells versus HepG2 cells, read-out: Ratio IC50
HCT-116 [2] = assay: Induction of apoptosis in human HCT-116 cells assessed as early apoptotic cells at 10 uM incubated for 24 hrs by annexin V FITC/propidium iodide staining based flow cytometry (reference value: 11.1 %); type: functional
[3] = Metabolic stability in Sprague-Dawley rat liver microsome; type: ADME; settings: microsomes
[4] = target: T1, Phosphatidylinositol 4,5-bisphosphate 3-kinase catalytic subunit delta isoform (Homo sapiens, UniProt O00329); assay: Inhibition of PI3Kdelta (unknown origin) using PIP2 as substrate in presence of ATP incubated for 60 mins by ADP-glo based luminescence assay
T1 sequence (O00329 whole entry): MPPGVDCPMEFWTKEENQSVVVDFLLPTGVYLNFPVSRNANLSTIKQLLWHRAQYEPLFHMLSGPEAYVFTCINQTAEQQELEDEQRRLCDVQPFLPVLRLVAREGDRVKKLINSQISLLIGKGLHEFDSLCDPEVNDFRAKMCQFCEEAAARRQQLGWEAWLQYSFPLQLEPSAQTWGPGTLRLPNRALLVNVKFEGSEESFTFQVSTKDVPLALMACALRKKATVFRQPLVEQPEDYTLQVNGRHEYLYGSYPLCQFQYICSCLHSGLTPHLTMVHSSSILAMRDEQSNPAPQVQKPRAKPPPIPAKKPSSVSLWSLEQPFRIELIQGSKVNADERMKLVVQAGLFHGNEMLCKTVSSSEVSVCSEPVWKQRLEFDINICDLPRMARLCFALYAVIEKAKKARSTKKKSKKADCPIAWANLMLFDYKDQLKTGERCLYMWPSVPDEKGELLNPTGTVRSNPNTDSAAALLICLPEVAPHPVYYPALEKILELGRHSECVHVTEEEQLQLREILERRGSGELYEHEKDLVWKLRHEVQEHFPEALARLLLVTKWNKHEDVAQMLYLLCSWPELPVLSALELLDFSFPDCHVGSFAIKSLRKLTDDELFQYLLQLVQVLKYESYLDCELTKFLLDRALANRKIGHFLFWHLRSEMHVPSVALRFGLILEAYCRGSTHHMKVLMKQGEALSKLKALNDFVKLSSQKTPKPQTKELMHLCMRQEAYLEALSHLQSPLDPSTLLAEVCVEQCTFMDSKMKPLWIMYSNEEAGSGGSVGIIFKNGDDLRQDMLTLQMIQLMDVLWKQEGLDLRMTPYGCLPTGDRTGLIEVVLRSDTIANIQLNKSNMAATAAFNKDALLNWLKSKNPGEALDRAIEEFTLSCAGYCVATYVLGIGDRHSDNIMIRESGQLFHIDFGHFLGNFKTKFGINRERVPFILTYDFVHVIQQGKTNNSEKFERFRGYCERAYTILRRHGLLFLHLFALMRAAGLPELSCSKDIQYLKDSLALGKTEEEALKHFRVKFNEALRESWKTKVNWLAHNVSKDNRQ

Cytochrome P450 2C19 = Cytochrome P450 2C19 (Homo sapiens, UniProt P33261); assay: Inhibition of CYP2C19 (unknown origin); type: ADME
Sequence of Cytochrome P450 2C19 (P33261 whole entry): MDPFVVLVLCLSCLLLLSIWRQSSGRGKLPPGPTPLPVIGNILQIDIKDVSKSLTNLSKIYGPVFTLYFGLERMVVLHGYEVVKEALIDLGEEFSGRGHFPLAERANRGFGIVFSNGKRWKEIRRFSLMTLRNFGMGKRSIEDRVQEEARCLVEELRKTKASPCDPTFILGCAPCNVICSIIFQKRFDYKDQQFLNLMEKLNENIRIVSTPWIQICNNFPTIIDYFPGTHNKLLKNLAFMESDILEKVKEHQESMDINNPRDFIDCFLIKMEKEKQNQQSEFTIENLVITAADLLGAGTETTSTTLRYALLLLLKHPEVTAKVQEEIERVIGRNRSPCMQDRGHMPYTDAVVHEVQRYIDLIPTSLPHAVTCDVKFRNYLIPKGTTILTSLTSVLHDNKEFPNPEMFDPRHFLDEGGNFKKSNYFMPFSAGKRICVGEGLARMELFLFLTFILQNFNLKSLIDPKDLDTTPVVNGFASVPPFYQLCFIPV

HCT-116 [5] = assay: Inhibition of cell migration in human HCT-116 cells at 6 uM measured after 24 hrs by wound healing assay (reference value: 31.16 %); type: functional
[6] = Stability in Sprague-Dawley rat plasma; type: ADME, cell-free
HCT-116 [7] = assay: Induction of apoptosis in human HCT-116 cells assessed as late apoptotic cells at 10 uM incubated for 24 hrs by annexin V FITC/propidium iodide staining based flow cytometry (reference value: 6.8 %); type: functional
HepG2 = assay: Antiproliferative activity against human HepG2 cells assessed as reduction in cell viability incubated for 48 hrs by MTT assay; type: functional, cell-based; settings: HepG2, 48 h
HCT-116 [8] = assay: Induction of apoptosis in human HCT-116 cells assessed as early apoptotic cells at 2.5 uM incubated for 24 hrs by annexin V FITC/propidium iodide staining based flow cytometry (reference value: 11.1 %); type: functional
Cytochrome P450 1A2 = Cytochrome P450 1A2 (Homo sapiens, UniProt P05177); assay: Inhibition of CYP1A2 (unknown origin); type: ADME
Sequence of Cytochrome P450 1A2 (P05177 whole entry): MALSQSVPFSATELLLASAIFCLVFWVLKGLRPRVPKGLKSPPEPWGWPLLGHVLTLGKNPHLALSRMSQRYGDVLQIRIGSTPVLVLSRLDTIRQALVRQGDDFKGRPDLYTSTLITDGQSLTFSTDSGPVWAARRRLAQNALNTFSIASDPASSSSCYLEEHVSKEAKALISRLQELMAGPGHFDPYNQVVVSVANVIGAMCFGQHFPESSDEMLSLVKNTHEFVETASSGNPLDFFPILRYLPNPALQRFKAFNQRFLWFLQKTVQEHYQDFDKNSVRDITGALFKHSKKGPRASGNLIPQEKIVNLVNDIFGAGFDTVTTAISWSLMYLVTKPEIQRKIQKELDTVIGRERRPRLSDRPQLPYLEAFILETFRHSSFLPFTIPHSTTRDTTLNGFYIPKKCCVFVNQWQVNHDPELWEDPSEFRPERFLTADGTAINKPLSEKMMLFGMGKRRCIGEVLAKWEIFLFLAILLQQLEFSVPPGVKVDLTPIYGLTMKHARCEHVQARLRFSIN

[9] = target: Voltage-gated inwardly rectifying potassium channel KCNH2 (Homo sapiens, UniProt Q12809); assay: Inhibition of human ERG transfected in CHO cells by automated patch method; type: toxicity, cell-based
Sequence of Voltage-gated inwardly rectifying potassium channel KCNH2 (Q12809 whole entry): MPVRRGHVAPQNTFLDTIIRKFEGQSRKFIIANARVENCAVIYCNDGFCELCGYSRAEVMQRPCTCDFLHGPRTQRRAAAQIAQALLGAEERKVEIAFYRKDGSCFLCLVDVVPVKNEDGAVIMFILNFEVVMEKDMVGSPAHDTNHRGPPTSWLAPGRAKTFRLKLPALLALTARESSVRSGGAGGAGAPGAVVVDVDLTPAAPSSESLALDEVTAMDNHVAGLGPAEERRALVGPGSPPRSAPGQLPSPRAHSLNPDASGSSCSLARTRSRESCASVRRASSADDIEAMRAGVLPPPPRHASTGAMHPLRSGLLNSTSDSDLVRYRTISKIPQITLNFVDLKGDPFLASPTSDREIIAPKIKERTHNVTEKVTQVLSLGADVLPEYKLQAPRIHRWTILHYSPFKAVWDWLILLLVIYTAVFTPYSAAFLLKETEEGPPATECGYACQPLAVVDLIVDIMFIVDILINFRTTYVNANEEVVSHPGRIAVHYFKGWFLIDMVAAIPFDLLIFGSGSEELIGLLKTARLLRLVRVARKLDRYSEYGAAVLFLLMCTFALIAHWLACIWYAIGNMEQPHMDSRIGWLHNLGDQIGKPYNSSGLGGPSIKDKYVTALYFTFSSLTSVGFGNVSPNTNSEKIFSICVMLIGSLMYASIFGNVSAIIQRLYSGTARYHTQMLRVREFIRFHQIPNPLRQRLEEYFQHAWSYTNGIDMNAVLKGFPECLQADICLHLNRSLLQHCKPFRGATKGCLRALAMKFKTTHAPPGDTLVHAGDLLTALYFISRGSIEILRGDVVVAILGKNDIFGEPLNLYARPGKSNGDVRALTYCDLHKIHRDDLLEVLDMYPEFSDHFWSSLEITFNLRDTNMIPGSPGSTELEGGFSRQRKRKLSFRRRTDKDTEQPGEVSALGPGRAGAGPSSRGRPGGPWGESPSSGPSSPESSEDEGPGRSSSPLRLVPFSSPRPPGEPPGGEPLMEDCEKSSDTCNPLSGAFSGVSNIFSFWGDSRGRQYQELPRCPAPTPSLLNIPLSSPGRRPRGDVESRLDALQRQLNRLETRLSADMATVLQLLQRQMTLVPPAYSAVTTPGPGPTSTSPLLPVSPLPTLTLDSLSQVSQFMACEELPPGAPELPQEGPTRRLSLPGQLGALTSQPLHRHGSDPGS

CNE-2 = assay: Antiproliferative activity against human CNE-2 cells assessed as reduction in cell viability incubated for 48 hrs by MTT assay; type: functional, cell-based; settings: CNE-2, 48 h
Spleen = assay: Toxicity in BALB/c mouse assessed as effect on spleen by H and E staining based histological analysis; type: tissue-based; settings: in vivo
Liver = assay: Toxicity in BALB/c mouse assessed as effect on liver by H and E staining based histological analysis; type: tissue-based; settings: in vivo
[10] = AUC (0 to infinity) in Sprague-Dawley rat at 20 mg/kg, iv by LC-MS/MS analysis; type: ADME, organism-based; set-up: route intravenous, time infinity, dose 20 mg/kg; settings: in vivo
HCT-116 [11] = assay: Induction of apoptosis in human HCT-116 cells assessed as late apoptotic cells at 2.5 uM incubated for 24 hrs by annexin V FITC/propidium iodide staining based flow cytometry (reference value: 6.8 %); type: functional
HeLa = assay: Antiproliferative activity against human HeLa cells assessed as reduction in cell viability incubated for 48 hrs by MTT assay; type: functional, cell-based
[12] = MRT in Sprague-Dawley rat at 20 mg/kg, iv by LC-MS/MS analysis; type: ADME, organism-based; settings: in vivo
[13] = target: Phosphatidylinositol 4,5-bisphosphate 3-kinase catalytic subunit alpha isoform (Homo sapiens, UniProt P42336); assay: Inhibition of PI3Kalpha (unknown origin) using PIP2 as substrate in presence of ATP incubated for 60 mins by ADP-glo based luminescence assay
Sequence of Phosphatidylinositol 4,5-bisphosphate 3-kinase catalytic subunit alpha isoform (P42336 whole entry, canonical isoform): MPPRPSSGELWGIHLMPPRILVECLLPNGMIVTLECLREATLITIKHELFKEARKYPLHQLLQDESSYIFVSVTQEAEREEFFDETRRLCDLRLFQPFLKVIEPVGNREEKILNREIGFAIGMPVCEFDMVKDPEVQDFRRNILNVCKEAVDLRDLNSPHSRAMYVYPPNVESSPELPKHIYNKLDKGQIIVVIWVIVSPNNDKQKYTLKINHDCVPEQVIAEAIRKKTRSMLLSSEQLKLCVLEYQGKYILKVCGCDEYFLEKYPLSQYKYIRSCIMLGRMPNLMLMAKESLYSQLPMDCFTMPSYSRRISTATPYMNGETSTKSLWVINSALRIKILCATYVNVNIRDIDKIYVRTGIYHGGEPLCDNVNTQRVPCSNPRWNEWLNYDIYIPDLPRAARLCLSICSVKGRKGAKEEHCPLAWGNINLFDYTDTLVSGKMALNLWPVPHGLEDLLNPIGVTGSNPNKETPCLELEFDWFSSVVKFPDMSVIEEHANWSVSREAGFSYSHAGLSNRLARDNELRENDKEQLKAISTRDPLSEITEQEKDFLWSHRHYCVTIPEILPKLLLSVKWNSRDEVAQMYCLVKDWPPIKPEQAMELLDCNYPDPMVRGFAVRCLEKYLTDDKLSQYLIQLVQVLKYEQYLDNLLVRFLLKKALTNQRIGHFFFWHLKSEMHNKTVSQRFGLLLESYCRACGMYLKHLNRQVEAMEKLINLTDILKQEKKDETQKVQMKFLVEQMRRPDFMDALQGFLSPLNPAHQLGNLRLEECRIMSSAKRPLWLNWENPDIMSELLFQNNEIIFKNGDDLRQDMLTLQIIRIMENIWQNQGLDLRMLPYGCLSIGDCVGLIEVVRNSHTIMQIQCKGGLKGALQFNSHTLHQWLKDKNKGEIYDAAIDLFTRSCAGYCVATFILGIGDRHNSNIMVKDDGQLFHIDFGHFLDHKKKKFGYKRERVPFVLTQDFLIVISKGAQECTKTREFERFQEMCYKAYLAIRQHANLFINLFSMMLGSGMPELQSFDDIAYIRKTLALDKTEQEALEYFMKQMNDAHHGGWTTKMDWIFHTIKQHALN

Cytochrome P450 2D6 = Cytochrome P450 2D6 (Homo sapiens, UniProt P10635); assay: Inhibition of CYP2D6 (unknown origin); type: ADME
Sequence of Cytochrome P450 2D6 (P10635 whole entry): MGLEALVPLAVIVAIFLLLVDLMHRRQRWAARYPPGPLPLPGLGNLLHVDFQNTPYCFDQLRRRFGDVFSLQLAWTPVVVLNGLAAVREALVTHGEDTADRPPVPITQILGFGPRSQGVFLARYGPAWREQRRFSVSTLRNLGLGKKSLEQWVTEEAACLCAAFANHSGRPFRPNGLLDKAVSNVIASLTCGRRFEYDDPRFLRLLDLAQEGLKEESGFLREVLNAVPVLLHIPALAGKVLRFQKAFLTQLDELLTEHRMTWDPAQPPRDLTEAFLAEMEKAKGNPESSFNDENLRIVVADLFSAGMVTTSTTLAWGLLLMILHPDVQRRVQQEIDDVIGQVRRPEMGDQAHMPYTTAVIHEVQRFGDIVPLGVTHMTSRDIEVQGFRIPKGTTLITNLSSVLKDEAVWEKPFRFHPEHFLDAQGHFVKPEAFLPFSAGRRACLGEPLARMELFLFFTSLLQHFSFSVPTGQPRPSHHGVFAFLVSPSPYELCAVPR

HCT-116 [14] = assay: Antitumor activity against human HCT-116 cells xenografted in BALB/c nude mouse assessed as tumor growth inhibition at 20 mg/kg, iv administered for 19 days; type: functional; settings: HCT-116, iv, 456 h, time 19 day, read-out: TGI
BaF3 = assay: Antiproliferative activity against mouse BaF3 cells harboring EGFR L858R/T790M/C797S mutant assessed as reduction in cell viability incubated for 72 hrs by celltiter-glo assay; type: toxicity, cell-based; settings: BaF3, 72 h
NCI-H1975 = assay: Antiproliferative activity against human NCI-H1975 cells harboring EGFR L858R/T790M double mutant assessed as reduction in cell viability incubated for 72 hrs by celltiter-glo assay; type: functional, cell-based; settings: NCI-H1975, 72 h
Lung = assay: Toxicity in BALB/c mouse assessed as effect on lungs by H and E staining based histological analysis; type: tissue-based; settings: in vivo
[15] = target: Serine/threonine-protein kinase mTOR (Homo sapiens, UniProt P42345); assay: Inhibition of mTOR (unknown origin) using U-Light-4E-BP1 peptide as a substrate in presence of ATP incubated for 45 mins by Lance ultra assay
MCF7 = assay: Antiproliferative activity against human MCF7 cells assessed as reduction in cell viability incubated for 48 hrs by MTT assay; type: functional, cell-based; settings: MCF7, 48 h

NC(=O)[C@@H]1CCCN1C(=O)c1ccc(NC(=O)Nc2ccc(-c3nc(N4CCOCC4)nc(N4CCOCC4)n3)cc2)cc1
selectivity ratio [1]: 6.6
Activity (HCT-116 [2]): 24.9%
Stability [3]: Stable
IC50 [4]: 0.0274 µM
IC50 (Cytochrome P450 2C19): > 50 µM
inhibition at 6 µM (HCT-116 [5]): 6.4%
Stability [6]: Stable
Activity (HCT-116 [7]): 10.3%
IC50 (HepG2): 15.1 µM
Activity (HCT-116 [8]): 18.5%
IC50 (Cytochrome P450 1A2): > 50 µM
IC50 [9]: > 30 µM
IC50 (CNE-2): 0.07 µM
Activity (Spleen): Non-Toxic
Activity (Liver): Non-Toxic
AUC(0-inf) [10]: 30.6 µg·h/mL
Activity (HCT-116 [11]): 20.6%
IC50 (HeLa): 13.4 µM
MRT [12]: 10.4 h
IC50 [13]: 0.0007 µM
IC50 (Cytochrome P450 2D6): > 50 µM
inhibition in vivo at 20 mg/kg (HCT-116 [14]): 41.6%
IC50 (BaF3): 0.217 µM
IC50 (NCI-H1975): 0.217 µM
Activity (Lung): Non-Toxic
IC50 [15]: 0.0033 µM
IC50 (MCF7): 2.22 µM
